Data taken from article PMC8948245, “Mechanistic insights into the regulation of plant phosphate homeostasis by the rice SPX2 – PHR2 complex” (Nature Communications, 2022).
One block for each molecule: values may come before it.

Experiments:
[1] = target: T1, SPX2^1–280/PHR2^225–362 (rice) (Oryza sativa, UniProt Q6Z784, K29A); assay: co-expression coupled Ni-NTA pull-down (InsP6-dependent SPX2-PHR2 association); type: biochemical; conditions: 1 mM InsP6, pH 8.0, 150 mM NaCl; indirect read-out
T1 construct: untagged full-length SPX2 (residues 1-280) co-expressed with 8xHis-tagged PHR2 225-362 in E. coli; 2:2 complex; with Protein PHOSPHATE STARVATION RESPONSE 2

AtSPX4 = target: T2, AtSPX4 (Arabidopsis thaliana, UniProt Q94A21); assay: analytical SEC (profile shift with InsP6); type: binding; conditions: pH 8.0, 150 mM NaCl
T2 construct: gene SPX4; full-length, N-terminal 6xHis tag removed by drICE protease; E. coli BL21(DE3)
T2 sequence (Q94A21 1-318): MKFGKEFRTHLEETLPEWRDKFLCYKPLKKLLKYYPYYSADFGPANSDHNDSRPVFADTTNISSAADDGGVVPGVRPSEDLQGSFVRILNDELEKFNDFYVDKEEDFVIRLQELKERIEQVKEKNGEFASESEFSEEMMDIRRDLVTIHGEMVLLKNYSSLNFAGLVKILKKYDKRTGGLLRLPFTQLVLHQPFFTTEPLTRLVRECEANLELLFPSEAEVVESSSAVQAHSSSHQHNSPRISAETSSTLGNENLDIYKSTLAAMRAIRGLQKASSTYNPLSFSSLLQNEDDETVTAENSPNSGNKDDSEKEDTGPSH

[2] = target: T3, SPX2^1–280/PHR2^225–362 (rice) (Oryza sativa, UniProt Q6Z784, Y25A); assay: co-expression coupled Ni-NTA pull-down (InsP6-dependent SPX2-PHR2 association); type: biochemical; conditions: 1 mM InsP6, pH 8.0, 150 mM NaCl; indirect read-out
T3 construct: untagged full-length SPX2 (residues 1-280) co-expressed with 8xHis-tagged PHR2 225-362 in E. coli; 2:2 complex; with Protein PHOSPHATE STARVATION RESPONSE 2

OsSPX1 = target: T4, OsSPX1 (Oryza sativa, UniProt Q69XJ0); assay: analytical SEC (profile shift with InsP6); type: binding; conditions: pH 8.0, 150 mM NaCl
T4 construct: gene SPX1; full-length, N-terminal 6xHis tag removed by drICE protease; E. coli BL21(DE3)
T4 sequence (Q69XJ0 1-295): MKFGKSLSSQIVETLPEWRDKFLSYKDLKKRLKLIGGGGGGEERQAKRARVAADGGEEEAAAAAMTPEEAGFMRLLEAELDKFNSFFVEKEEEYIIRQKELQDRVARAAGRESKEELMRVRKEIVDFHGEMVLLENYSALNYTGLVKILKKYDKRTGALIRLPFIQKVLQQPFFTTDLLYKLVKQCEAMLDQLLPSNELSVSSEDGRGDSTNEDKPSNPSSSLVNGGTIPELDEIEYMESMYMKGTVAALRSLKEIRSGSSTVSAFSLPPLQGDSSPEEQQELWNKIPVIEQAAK

[3] = target: T5, SPX2^1–280/PHR2^225–362 (rice) (Oryza sativa, UniProt Q6Z784, L28A); assay: co-expression coupled Ni-NTA pull-down (InsP6-dependent SPX2-PHR2 association); type: biochemical; conditions: 1 mM InsP6, pH 8.0, 150 mM NaCl; indirect read-out
T5 construct: untagged full-length SPX2 (residues 1-280) co-expressed with 8xHis-tagged PHR2 225-362 in E. coli; 2:2 complex; with Protein PHOSPHATE STARVATION RESPONSE 2

[4] = target: T6, SPX2^1–280/PHR2^225–362 (rice) (Oryza sativa, UniProt Q6Z784, K143A/K147A); assay: as above; type: biochemical; conditions: 1 mM InsP6, pH 8.0, 150 mM NaCl; indirect read-out
T6 construct: untagged full-length SPX2 (residues 1-280) co-expressed with 8xHis-tagged PHR2 225-362 in E. coli; 2:2 complex; with Protein PHOSPHATE STARVATION RESPONSE 2

AtSPX2 = target: T7, AtSPX2 (Arabidopsis thaliana, UniProt O48781); assay: analytical SEC (profile shift with InsP6); type: binding; conditions: pH 8.0, 150 mM NaCl
T7 construct: gene SPX2; full-length, N-terminal 6xHis tag removed by drICE protease; E. coli BL21(DE3)
T7 sequence (O48781 1-287): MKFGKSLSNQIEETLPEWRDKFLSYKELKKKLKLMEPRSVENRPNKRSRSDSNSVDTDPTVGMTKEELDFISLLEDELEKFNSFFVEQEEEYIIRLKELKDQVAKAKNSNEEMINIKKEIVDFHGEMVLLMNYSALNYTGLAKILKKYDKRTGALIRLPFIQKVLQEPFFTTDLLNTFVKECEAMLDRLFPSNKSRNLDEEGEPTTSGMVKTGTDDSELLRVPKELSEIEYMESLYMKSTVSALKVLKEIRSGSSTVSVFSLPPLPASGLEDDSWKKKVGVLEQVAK

[5] = target: T8, SPX2^1–280/PHR2^225–362 (rice) (Oryza sativa, UniProt Q6Z784, Y25F); assay: co-expression coupled Ni-NTA pull-down (InsP6-dependent SPX2-PHR2 association); type: biochemical; conditions: 1 mM InsP6, pH 8.0, 150 mM NaCl; indirect read-out
T8 construct: untagged full-length SPX2 (residues 1-280) co-expressed with 8xHis-tagged PHR2 225-362 in E. coli; 2:2 complex; with Protein PHOSPHATE STARVATION RESPONSE 2

OsSPX4 = target: T9, OsSPX4 (Oryza sativa, UniProt Q10B79); assay: analytical SEC (profile shift with InsP6); type: binding; conditions: pH 8.0, 150 mM NaCl
T9 construct: gene SPX4; full-length, N-terminal 6xHis tag removed by drICE protease; E. coli BL21(DE3)
T9 sequence (Q10B79 1-320): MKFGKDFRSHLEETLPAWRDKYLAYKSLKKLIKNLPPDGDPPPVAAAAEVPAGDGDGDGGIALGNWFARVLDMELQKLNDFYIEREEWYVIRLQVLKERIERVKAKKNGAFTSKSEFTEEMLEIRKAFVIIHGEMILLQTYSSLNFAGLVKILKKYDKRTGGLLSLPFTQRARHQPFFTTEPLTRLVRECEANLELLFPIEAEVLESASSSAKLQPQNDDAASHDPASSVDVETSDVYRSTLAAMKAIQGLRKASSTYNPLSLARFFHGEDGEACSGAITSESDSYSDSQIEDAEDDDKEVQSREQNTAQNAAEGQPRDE

OsSPX2^1-267/Δ47-64 = target: T10, OsSPX2^1-267/Δ47-64 (Oryza sativa, UniProt Q6Z784, DEL47-64); assay: analytical SEC and AUC (change of oligomeric state); type: binding; conditions: AUC with or without 1 mM InsP6, pH 8.0, 150 mM NaCl, 18 °C; no PHR2
T10 construct: gene SPX2; residues 1-267 lacking 47-64, C-terminal 8xHis tag, excess SPX2 separated from co-expressed PHR2 231-362; E. coli; monomer with InsP6
T10 sequence (Q6Z784 with tags, fused parts or gaps DEL47-64): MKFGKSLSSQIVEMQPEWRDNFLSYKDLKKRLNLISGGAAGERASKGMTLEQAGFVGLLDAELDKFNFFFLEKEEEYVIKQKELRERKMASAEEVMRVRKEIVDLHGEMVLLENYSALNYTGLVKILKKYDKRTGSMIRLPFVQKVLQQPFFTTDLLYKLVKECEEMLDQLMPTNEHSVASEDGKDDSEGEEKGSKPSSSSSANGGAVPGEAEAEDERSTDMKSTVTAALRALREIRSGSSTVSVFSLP

PHR2 MYB-CC K292D = PHR2 MYB-CC K292D (Oryza sativa, UniProt B8B5N8 225-362, K292D); assay: EMSA; EMSA: 10 nM FAM-DNA, 0.3375-0.8 uM PHR2, 25 mM Tris-HCl pH 8.0, 150 mM NaCl, 5 mM DTT, 10% glycerol, 200 ng/ml heparin, 4 C, 30 min; crystal: 13% PEG 3350, 0.1; conditions: protein: recombinant; tags: C-terminal 8xHis; chain copies: 2; blunt, 30 bp
[6] = target: T11, His-tagged PHR2^225–362 (rice PHR2, MYB domain and CC domain) (rice (Oryza sativa), UniProt Q6Z156 225-362); assay: AUC; sedimentation velocity of the purified SPX2/PHR2 complex, 25 mM Tris-HCl pH 8.0, 150 mM NaCl, 1 mM InsP6, 18 °C, 0.7 mg ml^-1; conditions: both partners purified
T11 construct: pET21b, C-terminal 8×His tag; codon-optimised synthetic cDNA; also called PHR2-His; source: E. coli BL21(DE3), co-expressed with SPX2; not shown: 8×His, C-terminal, kept
T11 sequence (Q6Z156 225-362): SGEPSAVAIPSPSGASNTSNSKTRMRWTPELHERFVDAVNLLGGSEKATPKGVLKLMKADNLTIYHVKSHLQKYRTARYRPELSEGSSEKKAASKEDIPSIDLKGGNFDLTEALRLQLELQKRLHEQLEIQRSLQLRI

T5 sequence (Q6Z784 whole entry L28A, the tested form may be a part): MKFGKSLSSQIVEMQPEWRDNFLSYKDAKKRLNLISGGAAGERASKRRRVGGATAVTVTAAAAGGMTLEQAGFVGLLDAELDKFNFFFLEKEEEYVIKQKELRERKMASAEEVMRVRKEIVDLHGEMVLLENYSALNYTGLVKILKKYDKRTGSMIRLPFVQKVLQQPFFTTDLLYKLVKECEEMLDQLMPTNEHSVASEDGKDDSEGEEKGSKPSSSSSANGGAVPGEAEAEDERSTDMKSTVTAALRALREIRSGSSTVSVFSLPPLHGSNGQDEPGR
T5 sequence (Q6Z156 225-362 partner): as the sequence (Q6Z156 225-362) above
T1 sequence (Q6Z784 whole entry K29A, the tested form may be a part): as the sequence (Q6Z784 whole entry L28A, the tested form may be a part) above, with A28L, K29A counted along it
T1 sequence (Q6Z156 225-362 partner): as the sequence (Q6Z156 225-362) above
T6 sequence (Q6Z784 whole entry K143A/K147A, the tested form may be a part): as the sequence (Q6Z784 whole entry L28A, the tested form may be a part) above, with A28L, K143A, K147A counted along it
T6 sequence (Q6Z156 225-362 partner): as the sequence (Q6Z156 225-362) above
T8 sequence (Q6Z784 whole entry Y25F, the tested form may be a part): as the sequence (Q6Z784 whole entry L28A, the tested form may be a part) above, with Y25F, A28L counted along it
T8 sequence (Q6Z156 225-362 partner): as the sequence (Q6Z156 225-362) above
Sequence of PHR2 MYB-CC K292D (B8B5N8 225-362 K292D): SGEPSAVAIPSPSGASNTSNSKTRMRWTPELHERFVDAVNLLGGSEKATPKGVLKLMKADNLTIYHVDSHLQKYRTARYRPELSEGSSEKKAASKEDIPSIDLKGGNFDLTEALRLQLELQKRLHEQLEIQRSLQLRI
T3 sequence (Q6Z784 whole entry Y25A, the tested form may be a part): as the sequence (Q6Z784 whole entry L28A, the tested form may be a part) above, with Y25A, A28L counted along it
T3 sequence (Q6Z156 225-362 partner): as the sequence (Q6Z156 225-362) above

Molecule: O=P(O)(O)O[C@H]1[C@H](OP(=O)(O)O)[C@@H](OP(=O)(O)O)[C@H](OP(=O)(O)O)[C@@H](OP(=O)(O)O)[C@H]1OP(=O)(O)O [InsP6]
co-expression coupled Ni-NTA pull-down (InsP6-dependent SPX2-PHR2 association) [1]: strongly reduced or abolished by the Y25F, Y25A, L28A, K29A, or K143A/K147A substitutions of SPX2
analytical SEC (profile shift with InsP6) (AtSPX4): their SEC profiles differ strongly in the presence of InsP6
co-expression coupled Ni-NTA pull-down (InsP6-dependent SPX2-PHR2 association) [2]: strongly reduced or abolished by the Y25F, Y25A, L28A, K29A, or K143A/K147A substitutions of SPX2
analytical SEC (profile shift with InsP6) (OsSPX1): their SEC profiles differ strongly in the presence of InsP6
co-expression coupled Ni-NTA pull-down (InsP6-dependent SPX2-PHR2 association) [3]: strongly reduced or abolished by the Y25F, Y25A, L28A, K29A, or K143A/K147A substitutions of SPX2
co-expression coupled Ni-NTA pull-down (InsP6-dependent SPX2-PHR2 association) [4]: strongly reduced or abolished by the Y25F, Y25A, L28A, K29A, or K143A/K147A substitutions of SPX2
analytical SEC (profile shift with InsP6) (AtSPX2): their SEC profiles differ strongly in the presence of InsP6
co-expression coupled Ni-NTA pull-down (InsP6-dependent SPX2-PHR2 association) [5]: strongly reduced or abolished by the Y25F, Y25A, L28A, K29A, or K143A/K147A substitutions of SPX2
analytical SEC (profile shift with InsP6) (OsSPX4): their SEC profiles differ strongly in the presence of InsP6
analytical SEC and AUC (change of oligomeric state) (OsSPX2^1-267/Δ47-64): InsP6 binding appears to stabilize the domain into a monomeric state

B1: FAM P1BS EMSA probe (dsDNA)
DNA 1: AAGCTTGAATATGCAATGGAATATGCTTAG
DNA 2: CTAAGCATATTCCATTGCATATTCAAGCTT
binding result (PHR2 MYB-CC K292D): no binding

stoichiometry N [6]: 1 SPX2:PHR2 ratio (2:2)
B2: full-length rice SPX2 (SPX2^1–280), untagged (natural protein, rice (Oryza sativa), UniProt Q6Z784 1-280, looked up)
chain: MKFGKSLSSQIVEMQPEWRDNFLSYKDLKKRLNLISGGAAGERASKRRRVGGATAVTVTAAAAGGMTLEQAGFVGLLDAELDKFNFFFLEKEEEYVIKQKELRERKMASAEEVMRVRKEIVDLHGEMVLLENYSALNYTGLVKILKKYDKRTGSMIRLPFVQKVLQQPFFTTDLLYKLVKECEEMLDQLMPTNEHSVASEDGKDDSEGEEKGSKPSSSSSANGGAVPGEAEAEDERSTDMKSTVTAALRALREIRSGSSTVSVFSLPPLHGSNGQDEPGR
notes: rice (Oryza sativa) SPX2 (OsSPX2), full length, residues 1-280; pBB75 vector without any tag; also called OsSPX2; source: E. coli BL21(DE3), co-expressed with PHR2
